# What was measured:
# [1] = Iodine content of salt; type: physicochemical
# [2] = Viscosity of solution with 300 mg iodine/ml, 37° C.; type: physicochemical
# [3] = Molarity (and thus osmotic pressure) of solution with 300 mg iodine; type: physicochemical; conditions: 300 mg iodine/ml
# [4] = tested on: Rat (100 g); assay: LD50 rat, intravenous injection; type: in vivo; conditions: solution 300 mg iodine/ml, injection rate 2 ml/min
# Protocol: (§1) LD50 on mice and rats was determined after intravenous injection of
# (§2) the solutions containing 300 mg iodine/ml with an injection rate of 2
# [5] = tested on: Mouse (20 g); assay: LD50 mouse, intravenous injection; type: in vivo; conditions: solution 300 mg iodine/ml, injection rate 2 ml/min
# Protocol: as §1, §2
Compound,Iodine content of salt [1],"Viscosity of solution with 300 mg iodine/ml, 37° C. in centipoises [2]",Molarity of solution with 300 mg iodine [3],LD50 Rat (100 g) g iodine/kg [4],LD50 Mouse (20 g) g iodine/kg [5]
CC(=O)Nc1c(I)c(NC(C)=O)c(I)c(C(=O)O)c1I [Megl. Amidotrizoate],47%,5.0 centipoises,0.787 mol/L,7.5 g iodine/kg,–
"NCC(=O)Nc1c(I)c(C(=O)NCCO)c(I)c(C(=O)NCCO)c1I [A-Iothalamate, 5-aminoacetamido-2,4,6-triiodoisophthalic acid bis(2-hydroxyethyl)amide iothalamate]",58%,2.4 centipoises,0.394 mol/L,≥ 10 g iodine/kg,≥ 10.5 g iodine/kg
CNC(=O)c1c(I)c(NC(C)=O)c(I)c(C(=O)O)c1I [Megl. Iothalamate],47%,5.2 centipoises,0.787 mol/L,7.4 g iodine/kg,4.5 g iodine/kg
CNC(=O)c1c(I)c(NC(C)=O)c(I)c(C(=O)O)c1I [Na-Iothalamate],60%,2.7 centipoises,0.787 mol/L,7.0 g iodine/kg,8.0 g iodine/kg
"CN(CC(O)CO)C(=O)c1c(I)c(NC(=O)CN)c(I)c(C(=O)N(C)CC(O)CO)c1I (centres unmarked) [B-Amidotrizoate, 5-amidoacetamido-2,4,6-isophthalic acid bis(N-methyl-2,3-dihydroxypropyl) diamide amidotrizoate]",54%,3.5 centipoises,0.394 mol/L,≥ 10 g iodine/kg,–

# From patent US4283381A, “Triiodinated aminoacetamido isophthalamide x-ray contrast agents” (Schering Aktiengesellschaft, priority 1979, dated 1981)
